According to the NIST ThermoML archive (doi:10.1021/je400207t):
Where “and” joins values, the source holds several entries; their conditions need not be identical. Identical values can stand only once.

Columns and labels:
[1] = for vapor or sublimation pressure: Calculated from knudsen effusion weight loss
[2] = Molar enthalpy of transition or fusion; conditions: DSC

O[C@@H]1[C@@H](O)[C@@H]2OC[C@@H](O2)[C@H]1O [1,6-anhydro-β-D-glucopyranose]
[1], Crystal 2
Conditions	vapor or sublimation pressure
361.13 K	5.35e-05 kPa and 6.29e-05 kPa and 5.88e-05 kPa
363.14 K	7.32e-05 kPa and 7.78e-05 kPa
365.22 K	0.000102 kPa and 0.000101 kPa and 9.67e-05 kPa
367.16 K	0.00012 kPa and 0.000119 kPa and 0.000113 kPa
369.14 K	0.000164 kPa and 0.000144 kPa and 0.000152 kPa
371.15 K	0.000183 kPa and 0.000192 kPa
373.15 K	0.000247 kPa and 0.000231 kPa
375.13 K	0.000317 kPa and 0.00028 kPa and 0.000289 kPa
377.22 K	0.000407 kPa and 0.000368 kPa and 0.000396 kPa
379.15 K	0.000476 kPa and 0.000472 kPa and 0.000458 kPa

Conditions	Molar enthalpy of transition or fusion, Crystal 1 [kJ/mol]	Molar enthalpy of transition or fusion, Crystal 2 [kJ/mol]	Normal melting temperature, Crystal 1, DTA [°C]	Triple point temperature, Crystal 2, DTA [K]
[1]	–	–	182.2	384.9
[2]	3.3	23.2	–	–
